Patent publication US11465984B2, “Compound having ERK kinase inhibitory activity and use thereof” (SHANGHAI HAIHE PHARMACEUTICAL CO., LTD., priority 2017, dated 2022)
Converted amounts (≈) assume the structure as drawn. Where two headings read alike, the source gives them in different places.

Tests used:
[1] = test system: human melanoma cell line A375; assay: In vitro cell study: proliferation of A375 cells (SRB); type: cell-based; details: A-375, 72 h incubation, read-out: IC50 against A375 cell
Experimental: The inhibitory activity of Compound P9 of the invention and the representative compounds of WO2017/114510A1 on the proliferation of human melanoma cell line A375 (IC50 value) was determined in this Example.
• Cell: human melanoma cell line A375 (CRL-1619™, ATCC) • Detection reagent: sulforhodamine B SRB (S9012, Sigma) • Microplate: 96 well microplate (3599, Corning) • Microplate reader: full-wavelength microplate reader (SpectraMax 190, Molecular Devices) (2). Assay Protocol:
Cells in logarithmic growth phase were seeded at appropriate density (3500/well) into 96-well microplates in the volume of 90 μL per well. After incubation in a CO2 incubator at 37° C. overnight, 10 μL of the compound at various concentrations or saline for medium control was added in triplicate and incubated for 72 h, and a blank well was set. […] The optical density (OD value) at the wavelength of 560 nm was measured using a full-wavelength microplate reader SpectraMax 190. The inhibition rate of the drug on the growth of the tumor cells was calculated according to the following formula: […]
The IC50 values were obtained by regression with four-parameter method using the software attached to the microplate reader. […]

[2] = Thermodynamic solubility assay; type: physicochemical; details: thermodynamic from solid, 37° C.
Experimental: The thermodynamic solubility of the compounds of the invention was determined in this Example
(3) Assay Protocol: Blank Vehicle with Different pH Values: • PH7.4: DPBS • PH6.8: 9900 μL HBSS+100 μL HEPS+5 μL 2N NaOH • […]: DPBS adjusted with 2N HCl to pH 2.0 Incubation: • About 3 mg of the compound was weighed, added with 500 μL of blank vehicle, and shaked at 37° C. for 24 h. Sample Treatment: • After incubation, the samples were centrifuged for 30 min, and the supernatant was transferred to a new EP tube and further centrifuged for 30 min • After centrifugation, the samples were diluted by 100 times with ACN/H2O (V/V, 1:1). • Linear concentration range from 12.5 nM to 1 mM was configured with ACN/H2O (V/V, 1:1). Biological Analysis: • All samples were mixed with water at the 1:1 ratio by volume, centrifuged at 4000 rpm for 5 min, and analyzed by LC-MS/MS. Analysis Methods:
Chromatography Conditions: • Analysis column: Acquity BEH C18 (1.7 μm; 2.1×50 mm, Waters) • Mobile phase A: 0.1% FA in H2O • Mobile phase B: 0.1% FA in CAN/MEOH (9:1, V/V) • Gradient: as shown in the table below.
MS/MS System • Multiple Reaction Monitoring (MRM) mode was used: […]

[3] = Pharmacokinetic study, single IV and PO administration to ICR mice; type: in vivo
Experimental: The pharmacokinetic parameters of Compound P9 of the invention and the representative compounds of WO2017/114510A1 in mice were determined in this Example.
(1) In Vivo Pharmacokinetics Protocol for Single Intravenous (IV) and Oral (PO) Administration to ICR Mice
The concentration during formulation of test substances was calculated on the basis of pure free base.
The test substance was accurately weighed, and added with the excipients (5% DMSO+5% Solutol+90% saline) in the specified amounts. After complete dissolution, the dosing solution for intravenous injection was obtained at the concentration of 0.2 mg/mL.
The test compound was accurately weighed, and added with the excipients (0.4% methylcellulose (viscosity: 400 cps)) in the specified amount. After sufficiently mixing, the dosing solution for oral administration was obtained at the concentration of 1 mg/mL.
Forty male SPF grade ICR mice were purchased from Shanghai Xipuer-Bikai Laboratory Animal Co., Ltd., and 30 normal healthy ICR mice of them passed the physical examination and were used in this study. Animal weight: 20.12-25.56 g.
Blood was collected through the orbit or through cardiac puncture after carbon dioxide (CO2) euthanasia. About 0.20 milliliter (mL) of blood was collected for each sample with heparin sodium as anticoagulant agent. The samples were placed on ice after collection. […]
The biological samples of the test substances were analyzed by LC-MS/MS. […]
The pharmacokinetic parameters were calculated from the blood concentration data of the drug, using WinNonlin 7.0 to provide the parameters such as AUC0-t, AUC0-∞, MRT0-∞, Cmax, Tmax, and T1/2, and the average and standard deviation thereof.
For those samples with concentrations below the lower limit of quantitation, when calculating the pharmacokinetic parameters, samples collected before Cmax should be calculated as zero, and samples collected at the points after Cmax should be calculated as being below the limit of qualitification (BLQ).

## Cn1nccc1Nc1cc(-c2cc(F)c3c(c2)CCN3C(=O)Cc2cccnc2Cl)ccn1 [Example P9, 2-(2-chloropyridin-3-yl)-1-(7-fluoro-5-(2-((1-methyl-1H-pyrazol-5-yl)amino)pyridin-4-yl)indolin-1-yl)ethan-1-one]
[1]
  IC50: 0.363 µM
[2]; HBSS/HEPES 10 mM/BSA 0.1% pH 6.8, pH 6.8, aqueous buffer, read-out: Maximum solubility in pH 6.8 HBSS/HEPES 10 mM/BSA 0.1%
  solubility at 24 h: 267 ± 3 µM (≈ 124 µg/mL)
[2]; PBS (DPBS) pH 2.0, pH 2, aqueous buffer, read-out: Maximum solubility in pH 2.0 PBS
  solubility at 24 h: 2850 ± 62 µM (≈ 1320 µg/mL)
[2]; PBS buffer, pH 7.4, aqueous buffer, read-out: Maximum solubility in pH 7.4 PBS
  solubility at 24 h: 544 ± 5.3 µM (≈ 252 µg/mL)
[3]
  CLz: CLz/(L/hr/kg): 0.36
[3]; po
  F: F/(%, po): 60.55
  nAUC0-t: nAUC0-t/(ng · h/ mL, po): 1696.3
